Experimental findings from patent publication US20120264735A1 (priority 2009, published 2012) are described below.

The structures appear in SMILES notation.

By IC50 is commonly meant the concentration needed to halve the response being measured.

The test deals with T1, c-Met kinase (recombinant c-Met) (Homo sapiens, UniProt P08581).
T1 construct: 0.27 nM recombinant c-Met
T1 sequence (P08581 25-1390): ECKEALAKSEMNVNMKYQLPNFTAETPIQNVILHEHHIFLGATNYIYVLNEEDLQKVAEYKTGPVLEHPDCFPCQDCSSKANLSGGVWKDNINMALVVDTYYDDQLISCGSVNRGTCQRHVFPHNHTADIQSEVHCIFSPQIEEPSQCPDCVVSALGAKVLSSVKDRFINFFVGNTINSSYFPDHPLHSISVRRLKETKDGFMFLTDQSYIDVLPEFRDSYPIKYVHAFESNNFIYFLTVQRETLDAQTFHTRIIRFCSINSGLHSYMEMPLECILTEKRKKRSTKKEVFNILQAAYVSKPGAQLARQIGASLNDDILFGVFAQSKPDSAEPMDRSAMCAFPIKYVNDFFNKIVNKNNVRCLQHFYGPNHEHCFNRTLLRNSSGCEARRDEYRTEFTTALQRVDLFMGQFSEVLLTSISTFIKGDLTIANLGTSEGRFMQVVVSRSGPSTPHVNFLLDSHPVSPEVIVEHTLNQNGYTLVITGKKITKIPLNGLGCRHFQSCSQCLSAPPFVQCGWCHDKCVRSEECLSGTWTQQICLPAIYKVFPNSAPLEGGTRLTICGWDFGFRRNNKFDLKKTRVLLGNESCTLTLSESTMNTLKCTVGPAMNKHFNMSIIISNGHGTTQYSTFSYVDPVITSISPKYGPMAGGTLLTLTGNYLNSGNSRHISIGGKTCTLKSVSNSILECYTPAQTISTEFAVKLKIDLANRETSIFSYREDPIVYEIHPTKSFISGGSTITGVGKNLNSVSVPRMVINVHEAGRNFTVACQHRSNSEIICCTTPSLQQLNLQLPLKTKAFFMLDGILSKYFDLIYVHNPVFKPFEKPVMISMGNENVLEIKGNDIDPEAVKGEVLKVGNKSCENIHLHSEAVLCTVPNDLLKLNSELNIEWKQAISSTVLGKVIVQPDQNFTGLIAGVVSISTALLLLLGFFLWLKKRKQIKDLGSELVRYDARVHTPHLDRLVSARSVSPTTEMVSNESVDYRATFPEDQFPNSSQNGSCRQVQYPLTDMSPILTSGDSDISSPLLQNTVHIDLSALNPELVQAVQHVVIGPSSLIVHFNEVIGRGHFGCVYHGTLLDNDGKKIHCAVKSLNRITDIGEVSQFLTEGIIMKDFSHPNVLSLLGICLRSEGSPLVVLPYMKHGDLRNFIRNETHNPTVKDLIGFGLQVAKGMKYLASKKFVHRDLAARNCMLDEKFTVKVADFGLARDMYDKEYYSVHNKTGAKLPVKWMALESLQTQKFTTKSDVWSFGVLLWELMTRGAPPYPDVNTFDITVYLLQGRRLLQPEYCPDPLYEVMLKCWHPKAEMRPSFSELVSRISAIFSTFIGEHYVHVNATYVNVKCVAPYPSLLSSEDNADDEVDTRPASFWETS
The test is described as follows: In vitro kinase assay I (homogeneous time-resolved fluorescence tyrosine kinase assay). The test is classed as biochemical. The method, boiled down:
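Biotinylated peptide (0.5 μM) phosphorylated by 0.2 nM recombinant c-Met with 50 μM MgATP, 60 min at room temperature, pH 7.4, 5% DMSO. EDTA stop; HTRF read with Eu-anti-phosphotyrosine antibody and streptavidin-APC. IC50 from 4-parameter logistic fit.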
In the case of `CC(C)COC(=O)Nc1cccc(Cc2nn(-c3cnn(CCCC(=O)N4CCCC4)c3)ccc2=O)c1` [Example 700, 2-methylpropyl [3-({4-oxo-1-[1-(4-oxo-4-pyrrolidin-1-ylbutyl)-1H-pyrazol-4-yl]-1,4-dihydropyridazin-3-yl}methyl)phenyl] carbamate], the IC50 was below 0.1 µM.

On to `CCn1cc(-n2ccc(=O)c(C(C)c3cccc(-c4ncc(OC5COC5)cn4)c3)n2)cn1` (single isomer, unassigned) [Example 213, 1-(1-ethyl-1H-pyrazol-4-yl)-3-((1S or R)-1-{3-[5-(oxetan-3-yloxy)pyrimidin-2-yl]phenyl}ethyl)pyridazin-4(1H)-one], for which the IC50 was in the range of 0.1 to 1 µM.

With `CCCCOC(=O)Nc1cccc(Cc2nn(-c3cnn(C)c3)ccc2=O)c1` [Example 500, Butyl (3-{[1-(1-methyl-1H-pyrazol-4-yl)-4-oxo-1,4-dihydropyridazin-3-yl]methyl}phenyl)carbamate], the IC50 was below 0.1 µM.

As for `CC(c1cccc(-c2ncc(-c3cnn(C)c3)cn2)c1)c1nn(-c2ccc(F)c(F)c2)ccc1=O` (single isomer, unassigned) [Example 239, 1-(3,4-difluorophenyl)-3-[(1R or S)-1-{3-[5-(1-methyl-1H-pyrazol-4-yl)pyrimidin-2-yl]phenyl}ethyl]pyridazin-4(1H)-one], the IC50 is below 0.1 µM.

Consider `CCCn1cnc(-c2cccc(Cc3nn(-c4cnn(CC)c4)ccc3=O)c2)n1` [Example 87, 1-(1-ethyl-1H-pyrazol-4-yl)-3-[3-(1-propyl-1H-1,2,4-triazol-3-yl)benzyl]pyridazin-4(1H)-one], for which the IC50 was below 0.1 µM.

Turning to `CCOC(=O)Nc1cccc(Cc2nn(-c3ccccc3)ccc2=O)c1` [Example 642, Ethyl {3-[(4-oxo-1-phenyl-1,4-dihydropyridazin-3-yl)methyl]phenyl}carbamate], the IC50 lay in the range of 0.1 to 1 µM.

On to `CC(c1cccc(-c2ncc(OC3CCOCC3)cn2)c1)c1nn(-c2cnn(C)c2)ccc1=O` (single isomer, unassigned) [Example 212, 1-(1-methyl-1H-pyrazol-4-yl)-3-[(1R or S)-1-{3-[5-(tetrahydro-2H-pyran-4-yloxy)pyrimidin-2-yl]phenyl}ethyl]pyridazin-4(1H)-one], for which the IC50 is below 0.1 µM.

As to `COc1cnc(-c2cccc(Cc3nn(-c4cc(F)c(F)c(F)c4)ccc3=O)c2)nc1` [Example 9, 3-[3-(5-methoxypyrimidin-2-yl)benzyl]-1-(3,4,5-trifluorophenyl)pyridazin-4(1H)-one], the IC50 is below 0.1 µM.

On to `CNCc1cnc(-c2cccc(Cc3nn(-c4cnn(C)c4)ccc3=O)c2)nc1` [Example 427, 3-(3-{5-[(methylamino)methyl]pyrimidin-2-yl}benzyl)-1-(1-methyl-1H-pyrazol-4-yl)pyridazin-4(1H)-one], for which the IC50 fell in the range of 0.1 to 1 µM.

Turning to `Cn1cc(-n2ccc(=O)c(Cc3cccc(-c4ncc(C(=O)NCC5CCCO5)cn4)c3)n2)cn1` (racemic) [Example 483, rac-2-(3-{[1-(1-methyl-1H-pyrazol-4-yl)-4-oxo-1,4-dihydro-pyridazin-3-yl]methyl}phenyl)-N-(tetrahydro-furan-2-ylmethyl)pyrimidine-5-carboxamide], the IC50 is below 0.1 µM.

`Cn1cc(-n2ccc(=O)c(Cc3cccc(-c4ncc(N5CCC(F)(F)C5)cn4)c3)n2)cn1` [Example 447, 3-{3-[5-(3,3-difluoropyrrolidin-1-yl)pyrimidin-2-yl]benzyl}-1-(1-methyl-1H-pyrazol-4-yl)pyridazin-4(1H)-one]: the IC50 was below 0.1 µM.

For `Cn1cc(-n2ccc(=O)c(Cc3cccc(NC(=O)OCC(F)CN4CCOCC4)c3)n2)cn1` (racemic) [Example 638, rac-2-Fluoro-3-morpholin-4-ylpropyl (3-{[1-(1-methyl-1H-pyrazol-4-yl)-4-oxo-1,4-dihydropyridazin-3-yl]methyl}phenyl)carbamate], the IC50 was below 0.1 µM.

As to `CC(C)COC(=O)Nc1cccc(Cc2nn(-c3ccc(-c4cnn(C)c4)cc3)ccc2=O)c1` [Example 732, 2-methylpropyl [3-({1-[4-(1-methyl-1H-pyrazol-4-yl)phenyl]-4-oxo-1,4-dihydropyridazin-3-yl}methyl)phenyl] carbamate], the IC50 fell in the range of 0.1 to 1 µM.

For the molecule `CCOc1cnc(-c2cccc(Cc3nn(-c4cccc(Br)c4)ccc3=O)c2)nc1` [Example 143, 1-(3-bromophenyl)-3-[3-(5-ethoxypyrimidin-2-yl)benzyl]pyridazin-4(1H)-one], the concentration for half-maximal inhibition (IC50) was below 0.1 µM.

Take `CCn1cc(-n2ccc(=O)c(Cc3cccc(-c4ncc(OC5CNC5)cn4)c3)n2)cn1` [Example 337, 3-{3-[5-(azetidin-3-yloxy)pyrimidin-2-yl]benzyl}-1-(1-ethyl-1H-pyrazol-4-yl)pyridazin-4(1H)-one]: the IC50 is below 0.1 µM.

As to `CCOc1cnc(-c2cccc(C(C)c3nn(-c4cccc(C#N)c4)ccc3=O)c2)nc1` (racemic) [Example 224, rac-3-[3-{1-[3-(5-ethoxypyrimidin-2-yl)phenyl]ethyl}-4-oxopyridazin-1(4H)-yl]benzonitrile], the IC50 is below 0.1 µM.

`CC1(COc2cnc(-c3cccc(Cc4nn(-c5ccc(F)c(F)c5)ccc4=O)c3)nc2)COC1` [Example 329, 1-(3,4-difluorophenyl)-3-(3-{5-[(3-methyloxetan-3-yl)methoxy]pyrimidin-2-yl}benzyl)pyridazin-4(1H)-one]: the IC50 is below 0.1 µM.

Consider `CN1CCN(CCOC(=O)Nc2cccc(Cc3nn(-c4cc(F)cc(F)c4)ccc3=O)c2)CC1` [Example 519, 2-(4-methylpiperazin-1-yl)ethyl (3-{[1-(3,5-difluorophenyl)-4-oxo-1,4-dihydropyridazin-3-yl]methyl}phenyl)carbamate], for which the IC50 was below 0.1 µM.

Consider `CCCn1cc(-n2ccc(=O)c(Cc3cccc(NC(=O)OCCN4CCOCC4)c3)n2)cn1` [Example 117, 2-morpholin-4-ylethyl (3-{[4-oxo-1-(1-propyl-1H-pyrazol-4-yl)-1,4-dihydropyridazin-3-yl]methyl}phenyl)carbamate], for which the IC50 was below 0.1 µM.

With `Cn1cc(-n2ccc(=O)c(Cc3cccc(-c4cnccn4)c3)n2)cn1` [Example 38, 1-(1-methyl-1H-pyrazol-4-yl)-3-[3-(pyrazin-2-yl)benzyl]pyridazin-4(1H)-one], the IC50 is 1 to 3 µM.

Consider `CCOc1cnc(-c2cccc(Cc3nn(-c4cc(F)cc(C#N)c4)ccc3=O)c2)nc1` [Example 133, 3-{3-[3-(5-ethoxypyrimidin-2-yl)benzyl]-4-oxopyridazin-1(4H)-yl}-5-fluorobenzonitrile], for which the IC50 was below 0.1 µM.

Regarding `Cn1cc(-n2ccc(=O)c(Cc3cccc(-c4ncc(N5CCCC5)cn4)c3)n2)cn1` [Example 470, 1-(1-methyl-1H-pyrazol-4-yl)-3-[3-(5-pyrrolidin-1-ylpyrimidin-2-yl)benzyl]pyridazin-4(1H)-one], the IC50 is below 0.1 µM.

`Cn1cc(-n2ccc(=O)c(Cc3cccc(-c4ncc(OC5COC5)cn4)c3)n2)cn1` [Example 164, 1-(1-methyl-1H-pyrazol-4-yl)-3-{3-[5-(oxetan-3-yloxy)pyrimidin-2-yl]benzyl}pyridazin-4(1H)-one]: the IC50 is below 0.1 µM.

Turning to `O=c1ccn(-c2ccc(F)c(F)c2)nc1Cc1cccc(-c2ncc(OCC3COCCO3)cn2)c1` (single isomer, unassigned) [Example 345, 1-(3,4-difluorophenyl)-3-(3-{5-[(2R or S)-1,4-dioxan-2-ylmethoxy]pyrimidin-2-yl}benzyl)pyridazin-4(1H)-one], the IC50 is below 0.1 µM.

Consider `Cn1cc(-n2ccc(=O)c(Cc3ccc4occc4c3)n2)cn1` [Example 51, 3-(1-benzofuran-5-ylmethyl)-1-(1-methyl-1H-pyrazol-4-yl)pyridazin-4(1H)-one], for which the concentration for half-maximal inhibition (IC50) fell in the range of 1 to 3 µM.

Turning to `CCCCc1nc(-c2cccc(Cc3nn(-c4cnn(C)c4)ccc3=O)c2)no1` [Example 741, 3-[3-(5-butyl-1,2,4-oxadiazol-3-yl)benzyl]-1-(1-methyl-1H-pyrazol-4-yl)pyridazin 4(1H)-one], the IC50 fell in the range of 0.1 to 1 µM.

In the case of `CC(C)(O)COc1cnc(-c2cccc(Cc3nn(-c4ccc(F)c(F)c4)ccc3=O)c2)nc1` [Example 360, 1-(3,4-difluorophenyl)-3-{3-[5-(2-hydroxy-2-methylpropoxy)pyrimidin-2-yl]benzyl}pyridazin-4(1H)-one], the IC50 is below 0.1 µM.

Turning to `O=C(Nc1cccc(Cc2nn(-c3cc(F)cc(F)c3)ccc2=O)c1)OCCN1CCOCC1=O` [Example 605, 2-(3-oxomorpholin-4-yl)ethyl (3-{[1-(3,5-difluorophenyl)-4-oxo-1,4-dihydropyridazin-3-yl]methyl}phenyl)carbamate], the IC50 was below 0.1 µM.

Take `CCNC(=O)Nc1cccc(Cc2nn(-c3ccccc3)ccc2=O)c1` [Example 486, 1-Ethyl-3-{3-[(4-oxo-1-phenyl-1,4-dihydropyridazin-3-yl)methyl]phenyl}urea]: the IC50 was in the range of 1 to 3 µM.

As to `CCOc1cnc(-c2cccc(Cc3nn(-c4cnn(C5CN(C(=O)OC(C)(C)C)C5)c4)ccc3=O)c2)nc1` [Example 661, tert-butyl 3-(4-{3-[3-(5-ethoxypyrimidin-2-yl)benzyl]-4-oxopyridazin-1(4H)-yl}-1H-pyrazol-1-yl)acetidine-1-carboxylate], the IC50 is below 0.1 µM.

Consider `COCCCOc1cnc(-c2cccc(Cc3nn(-c4ccc(F)c(F)c4)ccc3=O)c2)nc1` [Example 320, 1-(3,4-difluorophenyl)-3-{3-[5-(3-methoxypropoxy)pyrimidin-2-yl]benzyl}pyridazin-4(1H)-one], for which the IC50 is below 0.1 µM.

Take `CCCOC(=O)Nc1cccc(Cc2nn(-c3cccc(Br)c3)ccc2=O)c1` [Example 12, propyl (3-{[1-(3-bromophenyl)-4-oxo-1,4-dihydropyridazin-3-yl]methyl}phenyl)carbamate]: the IC50 was below 0.1 µM.

Turning to `COCCCOc1cnc(-c2cccc(Cc3nn(-c4cccc(C#N)c4)ccc3=O)c2)nc1` [Example 322, 3-[3-{3-[5-(3-methoxypropoxy)pyrimidin-2-yl]benzyl}-4-oxopyridazin-1(4H)-yl]benzonitrile], the IC50 was below 0.1 µM.
